Several values for one entry are separate records, joined by “and”; a condition that tells them apart may be missing. Equal entries are not always repeated.
Columns and labels:
Format in all cases: toxicity, cell-based
U2OS = assay: Incucyte cell viability with U2OS; conditions: human, 10 µM, compound concentration 10 uM
Fibroblast = assay: Incucyte cell viability with human fibroblast; conditions: 10 µM, compound concentration 10 uM
HEK-293T = assay: Incucyte cell viability with HEK293T; conditions: human, 10 µM, compound concentration 10 uM
[1] = 0 h, replicate number 1, timepoint 0 hours
[2] = 0 h, replicate number 2, timepoint 0 hours
[3] = 6 h, replicate number 1, timepoint 6 hours
[4] = 12 h, replicate number 1, timepoint 12 hours
[5] = 12 h, replicate number 2, timepoint 12 hours
[6] = 18 h, replicate number 1, timepoint 18 hours
[7] = 18 h, replicate number 2, timepoint 18 hours
[8] = 24 h, replicate number 1, timepoint 24 hours
[9] = 24 h, replicate number 2, timepoint 24 hours
[10] = 6 h, replicate number 2, timepoint 6 hours
Further: unitless GR value; below 1 slowed growth and below 0 cell loss.

Compound	Growth Rate (U2OS; [1])	Growth Rate (U2OS; [2])	Growth Rate (U2OS; [3])	Growth Rate (U2OS; [5])	Growth Rate (U2OS; [6])	Growth Rate (U2OS; [7])	Growth Rate (U2OS; [8])	Growth Rate (Fibroblast; [2])	Growth Rate (Fibroblast; [3])	Growth Rate (Fibroblast; [4])	Growth Rate (Fibroblast; [6])	Growth Rate (Fibroblast; [8])	Growth Rate (HEK-293T; [1])	Growth Rate (HEK-293T; [2])	Growth Rate (HEK-293T; [5])	Growth Rate (U2OS; [9])	Growth Rate (Fibroblast; [10])	Growth Rate (Fibroblast; [7])	Growth Rate (Fibroblast; [9])	Growth Rate (HEK-293T; [6])	other results
Cc1nccc(COC(=O)N2C[C@@H]3[C@@H](CNC(=O)c4ccc5[nH]nnc5c4)[C@@H]3C2)n1 [BI 3017]	0.07	0.45	0.79	0.9	0.68	0.98	0.71	0.77	0.04	0.1	0.53	0.68	0.67	0.34	0.9						Growth Rate (U2OS; [4]): 0.75; Growth Rate (Fibroblast; [1]): 0.35
CCOC(=O)N[C@@H]1CC[C@@H]2[C@@H](C1)C[C@H]1C(=O)O[C@H](C)[C@H]1[C@H]2/C=C/c1ccc(-c2cccc(F)c2)cn1 [VORAPAXAR]	-0.64			0.96		0.88			0.13	-0.08	-0.15	0.18			0.85	0.9	-0.65	-0.11	0.15	0.48	Growth Rate (Fibroblast; [5]): -0.18; Growth Rate (HEK-293T; [3]): 0.72; Growth Rate (HEK-293T; [4]): 0.42; Growth Rate (HEK-293T; [7]): 0.87; Growth Rate (HEK-293T; [8]): 0.45; Growth Rate (HEK-293T; [9]): 0.95
C[C@]1(O)CC[C@H]2[C@@H]3CCC4=CC(=O)CCC4=C3C=C[C@@]21C [METRIBOLONE]		0.07	0.83	0.92	0.54	0.92	0.76	0.22	0.66	0.98		0.98	0.16	0.59		0.86	0.85			1	Growth Rate (U2OS; [4]): 0.56; Growth Rate (Fibroblast; [1]): 0.89; Growth Rate (HEK-293T; [8]): 0.98
CC(C)(C)c1ccc(-c2coc3ccc(-c4cn[nH]c4)nc23)cc1	0.4			0.79	0.76	0.53	0.69		-0.89	-0.7	-0.62	-0.48			0.39	0.43	-0.35	0.05	0.09	0.66	Growth Rate (Fibroblast; [5]): 0; Growth Rate (HEK-293T; [3]): 0.36; Growth Rate (HEK-293T; [10]): 0.2; Growth Rate (HEK-293T; [4]): 0.44; Growth Rate (HEK-293T; [8]): 0.67; Growth Rate (HEK-293T; [9]): 0.62
COc1cc(Nc2nc(C)cc(-c3cnn4nc(OC)ccc34)n2)cc(C(F)(F)F)c1	0.11	0.84	0.24	1 and 0.46	0.85 and 0.45	0.62 and 0.36	0.62 and 0.35						0.76		0.84	0.76 and 0.27		0.67 and 0.25	0.58 and 0.24		Growth Rate (U2OS; [10]): 0.89 and 0.77; Growth Rate (U2OS; [4]): 0.61 and 0.48; Growth Rate (HEK-293T; [10]): 0.89; Growth Rate (HEK-293T; [7]): 0.94; Growth Rate (HEK-293T; [9]): 0.85
CCc1nnc(NS(=O)(=O)c2ccc(NC(=S)NC(=O)/C=C/c3ccc(F)cc3)cc2)s1	0.07	-0.11	0.55		0.81	0.86	0.86	-0.01		0.7		0.62		0.59			0.82	0.53	0.61	0.58	Growth Rate (U2OS; [4]): 0.77; Growth Rate (Fibroblast; [5]): 0.53; Growth Rate (HEK-293T; [3]): 0.64; Growth Rate (HEK-293T; [4]): 0.53; Growth Rate (HEK-293T; [8]): 0.67; Growth Rate (HEK-293T; [9]): 0.73
CC(/C=C1\SC(=S)N(CCCC(=O)Nc2ccc(C(=O)O)c(O)c2)C1=O)=C\c1ccccc1	0.71	-1						-0.04	0.97			0.83	0.57	0.54							Growth Rate (U2OS; [10]): 0.79
C[C@H]1[C@H]2CC[C@H]3[C@@H]4CC=C5C[C@@H](N(C)C)CC[C@]5(C)[C@H]4CC[C@]23CN1C [CONESSINE]				0.89				0.49	0.11	0.18	0.35	0.52		0.74						0.82	Growth Rate (U2OS; [10]): 0.8; Growth Rate (HEK-293T; [3]): 0.67; Growth Rate (HEK-293T; [4]): 0.85; Growth Rate (HEK-293T; [8]): 0.91
CC1=C(C)C(=O)C(C(CCCCCC(=O)O)c2ccccc2)=C(C)C1=O (stereo unspecified) [SERATRODAST]	-0.5	-1							0.67						0.63	0.99					Growth Rate (Fibroblast; [1]): 1; Growth Rate (HEK-293T; [10]): 0.54
COc1cc(Br)c(S(=O)(=O)Nc2ccc(C(F)(F)F)c(O[C@@H]3CCN(C)C3)c2)cc1OC		-1	0.02		0.61	1	0.77		-0.5	-0.19	-0.12	-0.01	0.96		0.38		-0.63	0.19	0.1		Growth Rate (Fibroblast; [5]): -0.22; Growth Rate (HEK-293T; [10]): 0.09; Growth Rate (HEK-293T; [7]): 0.94

From ChEMBL document CHEMBL5058564, “EUbOPEN Chemogenomics Library 2 (Incucyte)” (2022)
